The record followed here is patent publication US8026211B2, “Methods and formulations for increasing intestinal function” (Technion Research & Development Foundation Ltd., priority 2004, dated 2011).

Assay [1] has as its system jejunal and ileal crypt cells. Briefly: Rat model of SBS: crypt cell proliferation (5-BrdU incorporation). In kind it is in vivo. The settings on record: SBS rats, oral insulin, vs SBS-untreated, p<0.05. As to the method:
Animal treatment: Animals were obtained from the Rappaport Faculty of Medicine (Technion, Haifa, Israel). Male rats weighing 240-260 g were kept in individual stainless steel cages at constant temperature and humidity, and a 12-hour light-dark cycle was maintained. Rats were fasted 12 hours prior to the experiment with free access to water. Animals underwent one of two surgical procedures: bowel transection and re-anastomosis or 75% bowel resection and anastomosis. General anesthesia was induced with Pentobarbital (IP 40 mg/kg). Using sterile techniques, the abdomen was opened using a midline incision. […]
Group C—SBS-Insulin (SBS-INS, n=13) rats underwent bowel resection and were fed regular chow diet and water containing insulin (ACTRAPID insulin, NOVO NORDISK, Denmark) at concentration of 1 u/ml. Food and fluid intake of animals were monitored as well as weight for a period of 14 days following treatment after which the animals were sacrificed following intraperitoneal injection of pentobarbital (75 mg/kg).
Crypt Cell Proliferation and Enterocyte Apoptosis: Rats were injected with standard 5-bromodeoxyuridine (5-BrdU) labeling reagent (Zymed Lab, Inc, CA) at dose 1 ml per 100 g body weight two hours prior to sacrifice. […] An index of proliferation was determined as the ratio of crypt cells staining positively for BrdU per 10 crypts.

In assay [2] the test system is infants with SBS. Briefly: Oral insulin supplementation in infants with SBS (clinical evaluation). The format is in vivo, human. From the text: 1. Infants with less than 30 cm of small intestine (with ileo-cecal valve intact).
2. Infants with less than 40 cm without ileo-cecal valve.
3. Infants and children younger than 10 years of age, with SBS who are […] nutrition dependent and are not expected to be weaned of […] nutrition
Exclusion criteria: Infants in an unstable condition such as sepsis, acute gastroenteritis, pneumonia.
Dosage: 1 unit of insulin (Actrapid, Novonordisk, Denmark)/kg body weight per dose×4/day (every 6 hours) was administered for 28 days. Insulin was administered every six hours. Insulin will be provided as 1 u/ml of 0.45 NaCl orally.
Glucose monitoring: Following the first insulin dose, blood glucose levels were measured, immediately prior to the first and second meal following the first dose of insulin. Measurements were repeated for the first three days following supplementation and then weekly (days 7, 14, 21 and 28)
The clinical evaluation of the patients' conditions included the following parameters:
1. Weight, length, head circumference, MAC (mid arm circumference), TSF (triceps skin fold)—weekly
3. […] intake of calories, carbohydrates, lipids
4. Blood concentration levels of glucose, albumin, ALT, AST, GGT, ALP, total cholesterol, triglycerides (fasting), HDL-cholesterol, insulin (fasting, before insulin administration)
5. Blood amino acid levels
6. Insulin antibodies. 1 ml of serum was removed prior to treatment and at day 28 following treatment. The samples were frozen at −70° C. and sent, on dry ice, to Division of Pediatric Gastroenterology and Nutrition, Meyer Children's Hospital of Haifa, Bat-Galim 31096, Haifa for analysis.

Assay [3] has as its system ischemia-reperfusion (IR) injury in rats. Briefly: Rat ischemia-reperfusion injury: intestinal histology (villus height, crypt depth, Park's injury grade). In kind it is in vivo. As to the method: Surgical procedure: Following overnight fasting, the animals were anesthetized with intraperitoneal injection of pentobarbital (IP 40 mg/kg). Using sterile techniques, the abdomen was opened using a midline incision. […] IR underwent laparotomy, mobilization and occlusion of SMA and portal vein by vascular clamp for 30 minutes followed by a reperfusion period of 24 hours. Before closure of the abdomen, the rats were resuscitated with a 3-ml intraperitoneal injection of warm 0.9% saline. For all operations, the abdominal cavity was closed in two layers with a running suture of Dexon “S” Polyglycolic Acid 3/0. Rats were allowed free access to water and food. Twenty-four hours later, the rats were anesthetized with intraperitoneal pentobarbital (75 mg/kg) and were sacrificed by open pneumothorax.
Intestinal Histology: Intestinal samples from the proximal jejunum and distal ileum were fixed in 10% formalin, dehydrated in progressive concentrations of ethanol, cleared in xylene, and embedded in paraffin wax. Deparaffinized […] sections were stained with haematoxylin and eosin. Ten villi and crypts were selected for the microscopic analysis, using a 10×4 magnifying lens. Histological images were loaded on a 760×570 pixels resolution buffer using a computerized image analysis system composed of a trichip RGB video-camera (Sony, Japan), installed on a light microscope (Zeiss, Germany) and attached to an IBM compatible personal computer (Pentium III, MMX, 450 mhz, 125 MB RAM), equipped with a frame grabber. […] The villus height and crypt depth were measured using the Image Pro Plus 4 image analysis software (Media Cybernetics, Baltimore, Md., USA).
The degree of intestinal tissue injury was evaluated on a grading scale from 0 to 8 as described previously by Park et al., [Surgery. 107: 574, 1990]: 0—normal mucosa, 1—subepithelial space at villus tip, 2—more extended subepithelial space, 3—epithelial lifting along villus sides, 4—denuded villi, 5—loss of villus tissue, 6—crypt layer infarction, 7—transmucosal infarction, 8—transmural infarction.

The mark [4] stands for this setting: infant with SBS, oral insulin started, within a few days after initiation.

As for insulin, in assay [1], the “additional increase in proliferation index in jejunum” value came out at 36% and the “increase in proliferation index in ileum” value came to 52%. Also, in assay [2] (human infants with SBS, oral insulin 1 unit/kg per dose x4/day), the stool output entry is given as “reduced stool output”. Besides, in assay [2] (setting [4]), the jaundice result is “decrease in jaundice”, the “need for parenteral nutrition” value is listed as “reduced need for parenteral nutrition” and the oral feeds entry is recorded as “increase in oral feeds”. In addition, in assay [2] (infant with SBS, three months following the addition of insulin), the clinical outcome is “discharged from hospital, thriving and on full oral feeds”. For the same substance, in assay [2] (infant with SBS, two months following the addition of oral insulin), the parenteral nutrition status entry is given as “parenteral nutrition was stopped”. Besides, the “intestinal injury grade (Park's criteria) in jejunum and ileum” value in assay [3] (IR rats, oral insulin, vs IR-animals) is “did not significantly change”. The ileal crypt depth in assay [3] (insulin treated IR rats, IR 131±7, p<0.05) is given as 219±11 μm. In addition, in assay [3] (insulin treated IR rats, IR 167±8, p<0.05), the jejunal crypt depth is on record as 264±13 μm. Moreover, in assay [3] (insulin treated IR rats, IR 225±25, p<0.05), the ileal villus height is given as 421±40 μm. In assay [3] (insulin treated IR rats, IR 341±29, p<0.05), this substance registered a jejunal villus height of 622±91 μm.
